Patent US7598028B2, “Compositions and methods for detecting and treating prostate disorders” (The Regents of the University of Michigan, priority 2006, dated 2009)
Entries after “also recorded” stand apart in the source; their conditions may differ.

Columns and labels:
Format in all cases: cell-based, human
[1] = test system: N15C6 prostate epithelial cells; assay: Proliferation assay (cell counts), N15C6
Procedure: (§1) Proliferation assays. Cellular proliferation was assessed after plating cells at 50 000 cell/well in triplicate in six-well plates and counting cells after 24 and 96 h of incubation in complete media, serum-free media or serum-free prostate stromal fibroblast conditioned media, as described previously (Macoska J A, et al., (2004) Cancer Genet. Cytogenet. 154, 36-43; incorporated herein by reference in its entirety). Averages and standard deviations of cell number were calculated for each time point under each media condition. To assess the effects of exogenous CXCL12 on cellular proliferation, recombinant human SDF1 alpha/CXCL12 (R & D Systems, 350-NS) was added at the desired concentration in 1 mL SF HIE (or 1 mL SF HIE alone for control) to each well. The cells were counted at 24 and 96 h growth and re-fed at 48 and 72 h growth. Cell counts were normalized to 50 000 cells at 24 h to account for any plating discrepancies.
(§2) Proliferation Assays. Cellular proliferation was assessed after plating cells at 50,000 cell/well in triplicate in six well plates and counting cells after 24 and 96 hours of incubation as described previously (see, e.g., Macoska J A, et al., 2004 Cancer Genet. Cytogenet. 154, 36-43; incorporated herein by reference in its entirety). To assess the effects of exogenous CXCL12 on cellular proliferation, recombinant human SDF1 alpha/CXCL12 (R&D Systems, 350-NS) was added at the desired concentration in 1 ml SF HIE (or 1 ml SF HIE alone for control) to each well. The cells were re-fed at 48 and 72 hours growth and counted at 24 and 96 hours growth. Cell counts were normalized to 50,000 cells at 24 hours to account for any plating discrepancies. Averages and standard deviations of cell number were calculated for each time point under each media condition. Experiments utilizing U0126 were performed as above, except that cells were treated after plating for 2 hours with either DMSO (vehicle) or 5 uM U0126 before addition of CXCL12. Cells were maintained in media containing DMSO or U0126 for the entirety of the experiment. For the antibody blockade experiments, cells were plated at 10,000 cells per well in triplicate in 24 well dishes and pre-incubated with mouse IgG2aκ (BD Pharmingen 555571) or mouse anti-CXCR4 (BD Pharmingen 555971) at 1 ug/ml for 1 hour prior to CXCL12 addition. Cells were maintained in media containing appropriate antibodies for the entirety of the experiment, and cells were counted at 24 and 96 hours as above.
(§3) Proliferation Assays. Cellular proliferation was assessed after plating cells at 50,000 cell/well in triplicate in six well plates and counting cells after 24 and 96 hours of incubation as described previously (see, e.g., Begley L, et al., Genes Chromosomes Cancer. 2006 February; 45(2): 136-46; herein incorporated by reference in its entirety). To assess the effects of exogenous CXCL5 on cellular proliferation, recombinant human CXCL5 (R&D Systems, 254-X) was added at the desired concentration in 2 ml SF media (or 2 ml SF media alone for control) to each well. The cells were re-fed at 24 hours growth and counted at 24 and 96 hours growth. Cell counts were normalized to 50,000 cells at 24 hours to account for any plating discrepancies. Averages and standard deviations of cell number were calculated for each time point under each media condition. For the antibody blockade experiments, 10,000 cells per well were plated in triplicate in 24 well dishes and preincubated with mouse anti-human CXCR2 (Biosource AHR1532X) or mouse antihuman CXCR4 (BD Pharmingen 555971) at 1 ug/ml for 1 hour prior to CXCL5 addition. Cells were maintained in media containing appropriate antibodies for the entirety of the experiment and were counted at 24 and 96 hours as above.

[2] = test system: LNCaP prostate epithelial cells; assay: Proliferation assay (cell counts), LNCaP
Procedure: as §1, §2, §3

[3] = test system: EGR1 gene transcript; assay: Quantitative real-time PCR, EGR1 in N15C6 cells
Procedure: Quantitative Real-Time PCR. All quantitative real-time assays were conducted with an Applied Biosystems 7900HT instrument and reagents. Cells were grown to 70% confluence in […] dishes prior to RNA purification using the Trizol reagent (Invitrogen Life Technologies). Experiments utilizing U0126 were performed as above, except that cells were treated with DMSO (vehicle) or 5 uM U0126 for 2 hours, then grown in the presence or absence of CXCL12. For all experiments, one microgram of RNA was reverse transcribed by use of Superscript III reverse transcriptase (Invitrogen, Carlsbad, Calif.). The resulting cDNA was diluted 1:100. Real-time PCR was performed by use of Assays on Demand (Applied BioSystems, Foster City, Calif.) according to the manufacturer's instructions, except that Real Time Ready with Rox passive dye (QBioGene, Carlsbad, Calif.) was used in place of TaqMan Universal PCR Master Mix. […] Cycle numbers to threshold were calculated by subtracting averaged control from averaged experimental values, and Fold Gene Expression was calculated by raising […]. […]
Quantitative Real-Time PCR. All quantitative real-time assays were conducted as previously described with an Applied Biosystems 7900HT instrument and reagents (see, e.g., Begley L A, et al., J Biol. Chem. 2007 Sep. 14; 282(37):26767-74; herein incorporated by reference in its entirety). […]

[4] = add back of exogenous chemokine, 96 hours

“CXCL5: recombinant human CXCL5 (R&D Systems, 254-X), CXC-type chemokine” was tested, and the “CXCL5 concentrations that inhibited proliferation” value [1] was greater than 100 µM, the “CXCL5 concentrations that stimulated proliferation” value [1] was 1 to 10 pM and the “proliferation versus SF media alone” value ([1]; 0.001-1 nM CXCL5, p<0.05) was “significantly higher”. For the same compound, the “proliferation in response to CXCL5 compared with CXCL12” value ([1]; FIG. 8) was “equivalently”, the “cell proliferation compared to serum-free (SF HIE) media alone” value [1, 4] was “stimulate” and the “proliferation versus SF media alone” value ([2]; 0.001-1 nM CXCL5, p<0.05) was “significantly higher”. The “effect of CXCL5 on proliferation” value ([2]; CXCL5 1-10 pM) was “did not stimulate”, the “cell proliferation compared to serum-free (SF HIE) media alone” value [2, 4] was “stimulate” and the “EGR1 transcript versus vehicle-treated cells” value ([3]; 1-100 pM CXCL5) was 4- to 8 fold.
With `N#CC(=C(/N)Sc1ccccc1N)/C(C#N)=C(\N)Sc1ccccc1N` [U0126] the “effect on proliferative response to CXCL12” value (from here on “effect … to CXCL12”) ([1]; 1.0 uM U0126 with 1 pM, 10 pM or 100 pM CXCL12, compared to DMSO) was “nearly ablated”, the “effect … to CXCL12” value ([1]; 5.0 uM U0126 in 0.05% DMSO) was “nearly ablated” and the “effect of U0126 on the effect of CXCL5 (anticipated)” value ([1]; stated as anticipated) was “will inhibit”. The “cellular proliferation in the absence of CXCL12” value ([1]; treatment with U0126) was “diminished”, the “effect … to CXCL12” value ([2]; co-treatment with U0126 (5 uM), 50 pM CXCL12) was “not affected” and the “effect of U0126 on the effect of CXCL5 (anticipated)” value ([2]; stated as anticipated) was “will inhibit”. For the same compound, the “effect on CXCL12-stimulated EGR1 gene transcription” value ([3]; 5 uM U0126 for 2 hours, then 10 pM CXCL12) was “ablated; also recorded: further dampens”.
